The test system of one assay is human HepG2 cells. Description: Iodine labeled LDL binding in HepG2 cells in culture. The class given is cell-based. Particulars: 2 μM or 5 μM tested, added 24-48 hr after incubation began, FIG. 1a. Here is the method:
(§1) With reference to FIGS. 1a-b, an experiment was conducted wherein iodine labeled LDL was incubated with HepG2 or rat hepatocytes in culture with and without cleaved α1 -antitrypsin or hypocholesterolemic peptides. The cleaved α1 -antitrypsin and hypocholesterolemic peptides were added 24-48 hr after incubation began in 2 micromolar (μM) or 5 μM concentrations. The bound LDL was quantitated by counting. The control indicates the amount of bound LDL obtained when no cleaved α1 -antitrypsin or hypocholesterolemic peptides are present. FIGS. 1a-b show maximum LDL binding occurs when 2 μM α1 -antitrypsin or its peptide derivatives are added.
An acetyl derivative of SEQ ID No. 16 was tested experimentally in human Hep G2 cells for LDL binding in the same manner as described above in connection with FIGS. 1a-b. […] ID No. 16. The sub-fragment was added 24-48 hours after incubation began in concentrations ranging from 0.13-1.4 μM.

The test system of another assay is rat hepatocytes. As to the kind of experiment: Iodine labeled LDL binding in rat hepatocytes in culture. Format: cell-based. Conditions: 2 μM or 5 μM tested, added 24-48 hr after incubation began, FIG. 1b. The protocol: as §1

On to α1 -antitrypsin, for which the “concentration at which maximum LDL binding occurs” value in the assay with human HepG2 cells and with rat hepatocytes was 2 µM in each case.
